Measured values published in US20150051262A1, “NMDA RECEPTOR MODULATORS AND USES THEREOF” (Northwestern University, priority 2011, published 2015).
Residues, ends and D or L forms follow the SMILES beside them.

Tests used:
[1] = system: long-term depression (LTD); assay: Long-term depression (LTD) in hippocampal slices; type: cell-based; conditions: 1 μM, FIG. 7
Protocol: (Note 0.001 μM represents no drug addition; Each point is mean±SEM of 8-10 slices).

[2] = Metabolic stability in liver microsomes, human; type: in vitro ADME; conditions: Human (M) microsomes
Protocol: (§1) Metabolic stability was assessed in liver microsomes as well as in hepatocytes with few compounds.
(§2) Procedure for microsomal stability: • Species: Rat and human • Test concentration: 1 μM (n=2) • Protein concentration: 0.125 mg/mL • Time points: 0, 5, 15, 30 and 60 minutes • Controls: Minus NADPH and buffer • Analysis: Parent compound monitoring LC-MS/MS (Peak area ratios)

[3] = system: Schaffer collateral-evoked NMDA EPSCs in CA1 pyramidal neurons; assay: Long-term potentiation (LTP) assay procedure 2; type: cell-based, Sprague-Dawley rats; conditions: 1 μM, FIG. 8, P<0.05
Protocol: Assays were conducted as described in Zhang et al. (2008). Sprague-Dawley rats (12-18 days old; Taconic Farms) were deeply anesthetized with isoflurane and decapitated. Brains was removed rapidly, submerged in ice-cold artificial cerebrospinal fluid (ACSF, 2-4° C.), which contained (in mM): 124 NaCl, 4 KCl, 2 MgSO4, 2 CaC12, 1.25 NaH2PO4, 26 NaHCO3, 10 glucose; at pH 7.4, gassed continuously with 95% O2/5% CO2). Brains were hemisected, the frontal lobes cut off, and individual hemispheres glued using cyanoacrylate adhesive onto a stage immersed in ice-cold ACSF gassed continuously with 95% O2/5% CO2 during slicing. […] Bath application of test compounds (1 μM) was applied 30 min prior to application of Schaffer collateral stimulus trains to elicit LTP. LTP was induced by stimulation of Schaffer collateral axons with four high frequency theta burst stimulus trains of 10×100 Hz/5 pulse bursts each, applied at an inter-burst interval of 200 ms. Each train was 2 s in duration, and trains were applied 15 s apart.

[4] = Kinetic aqueous solubility (pION method); type: physicochemical; conditions: pH 7.4, conc. tested 200 μM with 1% DMSO, 16 h incubation
[5] = system: MDCK (Madin-Darby Canine Kidney Cells); assay: in vitro; conditions: concentration 5 μM
Protocol: (§3) Procedure. Permeability of test compounds was assessed using MDCK (Madin-Darby Canine Kidney Cells) using the below parameters. • Test concentration: 5 μM (n=3) • Buffer: HBSS pH 7.4 • Time points: 0, 15, 30, 60 and 90 min • Analysis: Parent compound monitoring using LC-MS/MS

[6] = system: floating behavior; assay: Porsolt test procedure 2; type: in vivo, Sprague Dawley rats
[7] = system: floating behavior; assay: Porsolt test procedure 2; type: in vivo, Sprague Dawley rats; conditions: 1 hr post-dosing
Protocol: The antidepressant-like effects of test compounds were examined with the rat Porsolt test as described in Page et al. (1999) and Burgdorf et al. (2009). Male Sprague Dawley rats (2-3 month old) were used in this study. Animals were dosed with test compounds (0.3 mg/kg IV) or sterile saline vehicle (1 ml/kg IV tail vein) 1 hr before a single test session. […] Water was changed after every other animal. […] CM-6A, CM-7A, CM-8A, and CM-9A were tested in the Porsolt test. CM-5A was not tested in the Porsolt test.
Animals received a single 15 min Porsolt habituation session on the day before the first 5 min Porsolt test. N=6 per group. *P<0.05 Fisher's PLSD post hoc test vs. vehicle.

[8] = Metabolic stability in liver microsomes, rat; type: in vitro ADME; conditions: Rat (M) microsomes
Protocol: as §1, §2

[9] = Metabolic stability in hepatocytes, rat; type: in vitro ADME; conditions: Rat (H) hepatocytes, 10 μM
Protocol: as §1
(§4) Procedure for hepatocyte stability: • Stock preparation: DMSO • Buffer: Krebs Henseleit Buffer • Total Incubation volume: […] • Cell density: 1 million cells/mL • Test concentration: 10 μM with 0.5% DMSO (n=2) • Time points: 0 and 60 min • Analysis: LC-MS/MS

[10] = Metabolic stability in hepatocytes, human; type: in vitro ADME; conditions: Human (H) hepatocytes, 10 μM
Protocol: as §1, §4

[11] = Bioavailability of CM-4A (plasma concentration after IV/PO dosing); type: in vivo, Sprague Dawley rats; conditions: 0.1 to 10 mg/kg PO, rat plasma, FIG. 1
Protocol: Procedure. […] Data for male and female were combined for 1 mg/kg PO dosing given that no gender difference was seen. Plasma was separated by centrifugation (1,000×G for 10 min at 4° C.) and plasma samples stored at −80° C. until assay. […]. On the day of the assay, samples and spiked plasma standards were thawed at 4° C., extracted in 3 volumes of ice cold acetonitrile, centrifuged at 25,000×G for 10 min at 4° C., and the supernatant was loaded into autosampler vials (4° C.).

[12] = system: latency to eat; assay: Rat novelty-induced hypophagia (NIH) test; type: in vivo, SD rats; conditions: 1 mg/kg PO, 1 hr before test, FIG. 13
Protocol: The rat NIH test was conducted as follows. Animals were food deprived overnight before testing, and lab chow was placed into the center chamber of the open field. After NIH testing, the latency to eat in the animals' home cage was determined as a control. […] N=12 per group. *P<0.05.

[13] = system: floating behavior; assay: Porsolt test procedure 1; type: in vivo, Sprague-Dawley rats
Protocol: Animals were placed in a 46 cm tall×20 cm in diameter clear glass tube filled to 30 cm with tap water at room temperature (23° C.±0.5° C.) for 5 min on the test day. All animals were towel dried after each swimming session by the experimenter. Water was changed after every other animal. Animals were videotaped and total duration (sec) of floating behavior (as defined as the minimal movement required in order to maintain the animal's head above the water) was quantified by a blind experimenter.

[14] = system: ultrasonic vocalizations; assay: Rat ultrasonic vocalizations (USVs) test; type: in vivo, SD rats; conditions: 1 mg/kg PO, 1 hr before testing
Protocol: FIGS. 14A and 14B show the results of the rat USVs test. Positive emotional learning was measured during the conditioned stimulus (CS) trials preceding the tickle unconditioned stimulus (UCS) trials (FIG. 14A). Animals received 15 second trials consisting of 6 CS and 6 UCS trials each (3 min total). Running speed for animals to self administer tickling at the end of the 3 min session was also measured. […] N=7-8. *P<0.05.

[15] = in vitro; conditions: dog, MDCK; for Papp: concentration 5 μM
Protocol: as §3

[16] = system: open field behavior; assay: Rat open field test; type: in vivo, SD rats; conditions: 1 mg/kg PO, 1 hr before test, FIG. 15
[17] = system: fall latencies; assay: Rat accelerating rota-rod test; type: in vivo, SD rats; conditions: 10-100 mg/kg PO, 30 and 60 min post-dosing, FIG. 16
Protocol: Animals were tested immediately before dosing (0 min), 30 min post-dosing, and 60 min post-dosing using a within subjects design.

## C[C@@H](O)[C@H](N)C(=O)N1CCC[C@H]1C(=O)N1CCC[C@H]1C(=O)N[C@H](C(N)=O)[C@@H](C)O [GLYX-13, reference compound] (H-TPPT-NH2)
[1]
  magnitude of LTD: significantly reduced the magnitude of LTD

## C[C@@H](O)[C@H](N)C(=O)N1CCC[C@H]1C(=O)N1CCC[C@@]1(Cc1ccc(F)cc1)C(=O)N[C@H](C(N)=O)[C@@H](C)O [CM-6A, (R)-N-((2S,3R)-1-amino-3-hydroxy-1-oxobutan-2-yl)-1-((S)-1-((2S,3R)-2-amino-3-hydroxybutanoyl)pyrrolidine-2-carbonyl)-2-(4-fluorobenzyl) pyrrolidine-2-carboxamide]
[2]; 1 μM
  % Remaining at 60 minutes: 88%
  Half-life: >1 h
  Stability Class: Moderate (% Remaining 70-90%)
[3]
  long-term potentiation after high frequency stimulation (fEPSP slope): increased long-term potentiation
[4]
  Mean Solubility (N = 3) at pH: >200
[5]
  Permeability classification: Low (≦3 × 10^−6 cm/sec)
  Recovery: 100
[6]; single dose (0.3 mg/kg IV), 24 hrs post-dosing, FIG. 11C
  floating time in the Porsolt test: produced an antidepressant-like effect
[7]; single dose 0.3 mg/kg IV, FIG. 11A
  floating time in the Porsolt test: produced an antidepressant-like effect
[7]; single dose (0.3 mg/kg IV), FIG. 11B
  floating time in the Porsolt test: produced an antidepressant-like effect
[8]; 1 μM
  % Remaining at 60 minutes: 100%
  Half-life: >1 h
  Stability Class: Stable (% Remaining >90%)
[9]
  % Remaining at 60 minutes: 87%
  Half-life: >1 h
  Stability Class: Moderate (% Remaining 70-90%)
[10]
  % Remaining at 60 minutes: 98%
  Half-life: >1 h
  Stability Class: Stable (% Remaining >90%)

## C[C@@H](O)[C@H](N)C(=O)N1CCC[C@H]1C(=O)N1CCC[C@@]1(Cc1ccccc1)C(=O)N[C@H](C(N)=O)[C@@H](C)O [CM-4A, (R)-N-((2S,3R)-1-amino-3-hydroxy-1-oxobutan-2-yl)-1-((S)-1-((2S,3R)-2-amino-3-hydroxybutanoyl)pyrrolidine-2-carbonyl)-2-benzylpyrrolidine-2-carboxamide]
[11]
  oral bioavailability (dose linearity): essentially linear
[1]
  magnitude of LTD: significantly reduced the magnitude of LTD
[12]
  latency to eat in the NIH test: produces an antidepressant/anxiolytic-like effect
[13]; 0.1 to 10 mg/kg PO, FIG. 9
  floating time in the rat Porsolt test (dose response): dose- and time-dependent antidepressant effect
[2]; 1 μM
  % Remaining at 60 minutes: 72%
  Stability Class: Moderate (% Remaining 70-90%)
[2]; liver microsomes
  half-life at 1 μM: > 1 h
[14]; FIG. 14A
  positive emotional learning: increases positive emotional learning
[14]; FIG. 14B
  aversive 20-kHz USVs: decreases aversive 20-kHz USVs
[15]; pH 7.4
  recovery at 5 μM: 100%
[15]; pH 7.4, Papp (10^−6 cm/sec), HBSS pH 7.4
  Papp: 0.15 ×10⁻⁶ cm/s
[15]; pH 7.4, Permeability classification
  Papp: < 3 ×10⁻⁶ cm/s
[6]; positive control, 1 mg/kg PO, 1 hr and 24 hrs post dosing, FIG. 12
  floating time in the rat Porsolt test: robust Antidepressant-like effects
[8]; 1 μM
  % Remaining at 60 minutes: 68%
  Stability Class: Unstable (% Remaining <70%)
[8]; liver microsomes
  half-life at 1 μM: > 1 h
[16]
  center compartment crosses and time (anxiolytic-like effect): produces an anxiolytic-like effect
  locomotor behavior (line crosses): without effecting locomotor behavior
[17]
  fall latencies (sedative/ataxia like effect): does not produce a sedative/ataxia like effect

## NS(=O)(=O)c1cccc2c1c([N+](=O)[O-])cc1[nH]c(=O)c(=O)[nH]c12 [NBQX, 2,3-dihydroxy-6-nitro-7-sulfamoyl-benzo[f]quinoxaline-2,3-dione, reference compound]
[13]; NBQX 10 mg/kg IP 10 min before CM-4A 1 mg/kg PO, FIG. 10
  floating time in the rat Porsolt test, NBQX pretreatment: blocks the antidepressant-like effect of CM-4A
